From patent US8835478B2, “Treatment for cancer” (Pitney Pharmaceuticals PTY Limited, priority 2005, dated 2014)

Experiments:
[1] = test system: 1A9PTX22 cells; assay: Sulforhodamine B (SRB) cell proliferation assay, 5-day treatment, 1A9PTX22 (paclitaxel resistant); assay type: cell-based, human; settings: for effect on cell proliferation: 1A9PTX22
Description: (§1) Human ovarian carcinoma cell lines OVCAR-3, SKOV-3, 1A9 and 1A9PTX22 were used. OVCAR-3 and SKOV-3 cells were obtained from the American Type Culture Collection (ATCC) and maintained on RPMI medium and McCoy5A medium respectively according to ATCC instructions. 1A9 is a clone of the human ovarian carcinoma cell line, A2780 (Sackett et al., 1997). 1A9PTX22 is a paclitaxel resistant subclone of 1A9 cells, isolated as an individual clone in a single step selection by exposing 1A9 cells to 5 ng/ml paclitaxel in the presence of 5 μg/ml verapamil, a Pgp antagonist (Giannakakou et al., 1997). Cells were maintained in 15 ng/ml paclitaxel and 5 μg/ml verapamil continuously.
(§2) Sulforhodamine B (SRB) colorimetric assay was used to study the effect of albendazole, paclitaxel or their combination on tumour cell cytotoxicity in vitro.
Cells were harvested from exponential phase cultures by trypsinization, counted and plated in 96-well plates. Optimal seeding densities for each cell line were determined to ensure exponential growth during a 5-day assay. Seeding densities were 5000, 1000, 400 and 3500 cells per well for OVCAR-3, SKOV-3, 1A9 and 1A9PTX22 cells, respectively. Cells plated in 96-well tissue culture plates were treated with 100 μl cell culture medium containing various concentrations of albendazole, paclitaxel or a combination of the two. […] Treatment media were replaced on alternate days. At the end of the treatment period (5 days), wells were assayed for cellular protein content. The SRB assay was performed according to the method described by Skehan et al. (1990) and Papazisis at al. (1997), with minor modifications. The culture medium was aspirated prior to fixation of the cells by the addition of 100 μl 10% cold trichloroacetic acid. After an hour incubation at 4° C., cells were washed five times with water. The cells were then stained with 200 μl 0.4% SRB dissolved in 1% acetic acid for at least 15 min and subsequently washed four times with 1% acetic acid to remove unbound stain. The plates were left to dry at room temperature and bound protein stain was solubilized with 100 μl 10 mM un-buffered Tris base [tris(hydroxymethyl)aminomethane)] before reading the optical density (OD) at 570 nm.
For each of the four cell lines used in this study, sensitivity of each line was initially tested by incubating cells with various concentrations of albendazole or paclitaxel for 5 days. The SRB assay was performed at the end of the treatment period to determine cell response to drug treatment.

[2] = test system: 1A9 cells; assay: Sulforhodamine B (SRB) cell proliferation assay, 5-day treatment, 1A9; assay type: cell-based; settings: Homo sapiens
Description: as §1, §2
(§3) Cells were harvested from exponential phase cultures by trypsinization, counted and plated in 96-well plates. Optimal seeding densities for each cell line were determined to ensure exponential growth during a 5-day assay. Seeding densities were 5000, 1000, 400 and 3500 cells per well for OVCAR-3, SKOV-3, 1A9 and 1A9PTX22 cells, respectively. […] The plates were left to dry at room temperature and bound protein stain was solubilized with 100 μl 10 mM un-buffered Tris base [tris(hydroxymethyl)aminomethane)] before reading the optical density (OD) at 570 nm. […]

[3] = test system: SKOV-3 cells; assay: Sulforhodamine B (SRB) cell proliferation assay, 5-day treatment, SKOV-3; assay type: cell-based, human; settings: 5 days
Description: as §1, §2, §3

[4] = test system: 1A9PTX22 cells; assay: SRB assay, 72 hours, cross resistance of 1A9PTX22 compared to parent line 1A9; assay type: cell-based, human; settings: for concentration at which partial resistance of 1A9PTX22 is apparent: 1A9PTX22 vs 1A9, p<0.001; for degree of sensitivity of 1A9PTX22 cells compared to parent cell line 1A9: various concentrations
Description: Cells were harvested from exponential phase cultures by trypsinization, counted and plated in 96-well plates. Optimal seeding densities for each cell line were determined to ensure exponential growth during a 5-day assay. Seeding densities were 5000, 1000, 400 and 3500 cells per well for OVCAR-3, SKOV-3, 1A9 and 1A9PTX22 cells, respectively. Cells plated in 96-well tissue culture plates were treated with 100 μl cell culture medium containing various concentrations of albendazole, paclitaxel or a combination of the two. Both albendazole and paclitaxel were originally made up in absolute ethanol and subsequently diluted with cell culture medium to give the desired drug concentrations with a final ethanol concentration of 1%. Treatment media were replaced on alternate days. At the end of the treatment period (5 days), wells were assayed for cellular protein content. The SRB assay was performed according to the method described by Skehan et al. (1990) and Papazisis at al. (1997), with minor modifications. The culture medium was aspirated prior to fixation of the cells by the addition of 100 μl 10% cold trichloroacetic acid. After an hour incubation at 4° C., cells were washed five times with water. The cells were then stained with 200 μl 0.4% SRB dissolved in 1% acetic acid for at least 15 min and subsequently washed four times with 1% acetic acid to remove unbound stain. The plates were left to dry at room temperature and bound protein stain was solubilized with 100 μl 10 mM un-buffered Tris base [tris(hydroxymethyl)aminomethane)] before reading the optical density (OD) at 570 nm.
1A9 and 1A9PTX22 cells plated in 96-well tissue culture plates were treated with 100 μl cell culture medium containing various concentrations of vincristine and colchicine for 72 hours and SRB assays conducted as described above. As for paclitaxel (see Example 1), both vincristine and colchicine were originally made up in absolute ethanol and subsequently diluted with cell culture medium to give the desired drug concentrations with a final ethanol concentration of 1%. The results are illustrated in FIGS. 5A (vincristine) and 5B (colchicine). […] The partial resistance of 1A9PTX22 is apparent for vincristine at concentrations of 5 nM and above and for colchicine at 100 nM and above (p<0.001).

For CCCSc1ccc2nc(NC(=O)OC)[nH]c2c1 [albendazole], the “sensitivity of 1A9PTX22 compared to the parent line (1A9)” value ([1]; 1A9PTX22 vs 1A9, various concentrations, 5 days) was “even more sensitive”, the inhibition at 1 µM ([1]; Homo sapiens, 1A9/ptx-22, 120 h, read-out: inhibitory effect on proliferation) was 53% and the inhibition at 0.1 µM ([2]; 1A9, 120 h, read-out: inhibition of proliferation) was 11.8%. The “reduction in cell proliferation” value ([3]; 0.25 μM albendazole alone) was 48.4%.
COc1cc2c(c(OC)c1OC)-c1ccc(OC)c(=O)cc1[C@@H](NC(C)=O)CC2 [colchicine] was tested, and the “concentration at which partial resistance of 1A9PTX22 is apparent” value [4] was no less than 100 nM and the “degree of sensitivity of 1A9PTX22 cells compared to parent cell line 1A9” value [4] was “significantly reduced”.
CC(=O)O[C@H]1C(=O)[C@@]2(C)[C@H]([C@H](OC(=O)c3ccccc3)[C@]3(O)C[C@H](OC(=O)[C@H](O)[C@@H](NC(=O)c4ccccc4)c4ccccc4)C(C)=C1C3(C)C)[C@]1(OC(C)=O)CO[C@@H]1C[C@@H]2O [paclitaxel] was tested, and the “effect on cell proliferation” value ([1]; 1.0 nM paclitaxel alone, 5 days) was “not affected”, the “effect on cell proliferation” value ([1]; 5.0 nM paclitaxel alone, 5 days) was “not affected” and the “increase in paclitaxel concentration required in paclitaxel-resistant cell lines for a response similar to paclitaxel-sensitive cells” value ([1]; paclitaxel alone, resistant vs sensitive cells) was “approximately 50 fold”. It also gave an inhibition at 0.0001 µM ([2]; 120 h, 1A9, 0.1 nM paclitaxel alone, 5 days) of 21.8% and an inhibition at 10 pM ([3]; Homo sapiens, SK-OV-3, 120 h, 0.01 nM paclitaxel alone) of 14.5%.
In the case of CC[C@]1(O)C[C@H]2CN(CCc3c([nH]c4ccccc34)[C@@](C(=O)OC)(c3cc4c(cc3OC)N(C=O)[C@H]3[C@@](O)(C(=O)OC)[C@H](OC(C)=O)[C@]5(CC)C=CCN6CC[C@]43[C@@H]65)C2)C1 [vincristine], the “concentration at which partial resistance of 1A9PTX22 is apparent” value [4] is reported as no less than 5 nM and the “degree of sensitivity of 1A9PTX22 cells compared to parent cell line 1A9” value [4] is reported as “significantly reduced”.
